Read-outs that look alike come from different tables or passages of the source.
Columns and labels:
Assay type in all cases: binding
[1] = biological target: T1, FBW7^ARG (RLFBW7) alone (Homo sapiens, UniProt Q969H0, R505L); assay: Counterscreen 1 ALPHAscreen with FBW7^ARG alone (CSRUN1/DCSRUN1); conditions: dose-response counterscreen; for Emax: read-out: RLFBW7 ACT DCSRUN1 Averaged Max % Response
T1 construct: GST (TEV site and flexible linker) (N, cleaved yes); made in house; host or cells: SF9 insect cells (baculovirus)
Summary of the method: (§1)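 Dose-response in triplicate, 10 points in 3-fold steps with a top concentration near 87 μM. Each counterscreen lacks one partner (FBW7^ARG alone or pCycE alone), giving signal not due to the binding pair. Activity is % activation versus WT-FBW7+pCycE; positive threshold 10%.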

[2] = system: pCycE alone; assay: Counterscreen 2 ALPHAscreen with cyclin E phosphopeptide alone (CSRUN2/DCSRUN2); conditions: for CyCEP ACT DCSRUN2 Averaged Max % Response: activation relative to WT-FBW7+pCycE, averaged maximum; for EC50: dose-response, triplicate, 10 point 3-fold dilutional series, read-out: CyCEP ACT DCSRUN2 Final EC50
Summary of the method: as §1

[3] = biological target: T2, FBW7^ARG+pCycE (Homo sapiens, UniProt Q969H0, R505L); assay: FBW7^ARG-cyclin E agonist ALPHAscreen (primary PRUN, confirmation CRUN1, dose-response DRUN); conditions: for EC50 / Emax: DRUN dose-response; for Emax: relative to WT-FBW7+pCycE, read-out: FBW7 ACT Averaged Max % Response
T2 construct: GST (TEV site and flexible linker) (N, cleaved yes); made in house; host or cells: SF9 insect cells (baculovirus)
Summary of the method: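 Compounds tested once at 26.1 μM (primary; confirmation in triplicate) or in a triplicate 10-point 3-fold dilution up to ~87 μM (dose-response). Bridging of 25 nM mutant FBW7 R505L to 25 nM biotinylated phosphorylated cyclin E peptide detected by Ni-acceptor/streptavidin-donor ALPHA signal, normalized to WT-FBW7+pCycE.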

[4] = raw curve fit, read-out: RLFBW7 ACT DCSRUN1 EC50 Curve Fit Raw
[5] = read-out: RLFBW7 ACT DCSRUN1 Final EC50
[6] = raw curve fit, read-out: FBW7 ACT EC50 Curve Fit Raw, Molar
[7] = triplicate, 10 point 3-fold dilution, max approx. 87 μM, read-out: FBW7 ACT Final EC50, Molar
[8] = confirmation assay, triplicate, single concentration 26.1 μM, read-out: FBW7 ACT CRUN1 Avg % Response and Stdev
[9] = primary screen, 1536-well, 26.1 μM, FBW7^ARG + pCycE degron peptide, high control wt-FBW7+pCycE, read-out: FBW7 ACT PRUN % Response

T2 sequence (Q969H0 64-707 R505L): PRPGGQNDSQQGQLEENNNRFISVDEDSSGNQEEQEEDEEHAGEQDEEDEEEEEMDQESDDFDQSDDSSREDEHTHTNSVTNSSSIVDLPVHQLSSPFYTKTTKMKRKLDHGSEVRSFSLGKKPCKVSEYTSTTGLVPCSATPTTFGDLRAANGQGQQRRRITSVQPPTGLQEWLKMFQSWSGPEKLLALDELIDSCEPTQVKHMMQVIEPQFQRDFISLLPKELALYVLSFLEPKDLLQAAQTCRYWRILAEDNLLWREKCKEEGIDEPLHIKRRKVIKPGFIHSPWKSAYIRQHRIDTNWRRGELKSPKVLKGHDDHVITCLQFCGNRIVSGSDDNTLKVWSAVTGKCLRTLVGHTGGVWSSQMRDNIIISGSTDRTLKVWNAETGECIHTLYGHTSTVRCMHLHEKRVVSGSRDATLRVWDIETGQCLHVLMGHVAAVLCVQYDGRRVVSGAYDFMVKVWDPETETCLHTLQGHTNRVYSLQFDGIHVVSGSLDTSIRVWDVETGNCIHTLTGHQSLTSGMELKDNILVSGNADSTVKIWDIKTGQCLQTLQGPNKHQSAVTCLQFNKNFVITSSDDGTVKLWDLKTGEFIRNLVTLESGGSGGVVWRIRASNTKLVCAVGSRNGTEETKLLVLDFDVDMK
T2 sequence (P63208 2-163 partner): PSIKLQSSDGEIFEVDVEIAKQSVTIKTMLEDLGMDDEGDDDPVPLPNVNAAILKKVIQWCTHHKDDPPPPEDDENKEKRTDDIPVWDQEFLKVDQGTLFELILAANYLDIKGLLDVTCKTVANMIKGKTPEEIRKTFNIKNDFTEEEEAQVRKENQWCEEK
T1 sequence (Q969H0 64-707 R505L): as the sequence (Q969H0 64-707 R505L) above
T1 sequence (P63208 2-163 partner): as the sequence (P63208 2-163 partner) above

Row | RLFBW7 ACT DCSRUN1 Hill Slope [1] | EC50 [1, 4] [µM] | Emax [1] [%] | EC50 [1, 5] [µM] | EC50 [3, 6] [µM] | Emax [3] [%] | EC50 [3, 7] [µM] | activation at 26.1 µM [3, 8] [%] | activation at 26.1 µM [3, 9] [%] | SMILES | CyCEP ACT DCSRUN2 Averaged Max % Response [2] [%] | EC50 [2] [µM]
1 | 6.64 | 28.6 | 83 | 29.9 | 53.6 | 23.5 | > 65.3 | 3.94 ± 9.71 | 8.85 | CSc1ccccc1C(=O)Nc1nc2nc(C)cc(C)c2s1 [SR-01000917298-1] | 0.18 | > 65.3
2 | – | 0.0059 | -0.274 | > 65.3 | 18 | 23.1 | > 65.3 | 5.69 ± 0.17 | 7.62 | COc1ccccc1-c1ccc(N2CCN(C(=O)COc3ccccc3)CC2)nn1 [SR-01000920770-1] | 0.32 | > 65.3
3 | – | 24.5 | 0.2 | > 65.3 | 31.9 | 17.5 | > 65.3 | 2.33 ± 0.59 | 2.62 | O=C(Nc1ccc2c(c1)OCO2)N1CCC(c2nnc(C3CC3)s2)CC1 [SR-01000922885-1] | 0.08 | > 65.3
4 | – | 22.5 | 0.09 | > 65.3 | 16.5 | 18.3 | > 65.3 | 4.96 ± 0.03 | 3.13 | Cc1cccc(NC(=O)N2CCC(c3nnc(C4CC4)s3)CC2)c1 [SR-01000922889-1] | 0.23 | > 65.3

From patent US20210047278A1, “E3 UBIQUITIN LIGASE AGONISTS, PHARMACEUTICAL COMPOSITIONS INCLUDING THE E3 UBIQUITIN LIGASE AGONISTS, RELATED METHODS OF USE” (FRED HUTCHINSON CANCER RESEARCH CENTER, priority 2018, published 2021)
